{"source": "paper PMC9886266", "about": "“New [1,2,4]triazolo[4,3-c]quinazolines as intercalative Topo II inhibitors: Design, synthesis, biological evaluation, and in silico studies” (PLOS ONE, 2023)", "test_system": "Bcl-2", "assay": "Western blot, Bcl-2 level", "assay_type": "cell-based, human", "conditions": "HCT-116, 2.44 μM, 48 h", "experimental": "In comparison to the control, compound 16 elevated the level of the proapoptotic protein (BAX) by 2.18 times. […] Furthermore, compound 16 enhanced the BAX/Bcl-2 ratio by 4.38-fold in comparison to control cells.\nThe effects of compound 16 on the expression of BAX, and Bcl‐2 were determined using Western blot analysis [62–64]as described in Electronic Supplementary Material S2.7 in S1 Appendix. […]\nfor 48 h. Then, the cells were fixed in 70% ethanol at 4 °C for 12 h. After that, the cells were washed with cold PBS, incubated with 100 μl RNase A at 37 °C for 30 min, and stained with 400 μl PI in the dark at room temperature for further 30 min. The stained cells were measured using Epics XL-MCL™ Flow Cytometer (Beckman Coulter), and the data were analyzed using Flowing software (version 2.5.1, Turku Centre for Biotechnology, Turku, Finland).\nS2.6. Flow cytometry analysis for apoptosis\nFlow cytometry cell apoptosis analysis was used to investigate the apoptotic effect of the synthesized compounds. […] The stained cells were measured using Epics XL-MCL™ Flow Cytometer and analyzed using Flowing software. […]\nThe proteins expression of BAX, and Bcl‐2 were determined using Western blot analysis. […] Total protein concentrations in the supernatant were determined colorimetrically using the Pierce 660 nm Protein Assay method (Thermo Fisher Scientific, Rockford, IL), with BSA as the standard. […]"}
{"smiles": "CCCNc1nc2ccccc2c2nnc(C(F)(F)F)n12", "note": "[Compound 16, N-Propyl-3-(trifluoromethyl)-[1,2,4]triazolo[4,3-c]quinazolin-5-amine]", "values": [{"measurement": "Reduction of Bcl-2 level compared to control", "result": 1.9, "unit": "fold"}, {"measurement": "Protein expression (normalized to β-actin) Bcl-2", "setting": "control = 1.00", "result": "0.52 ± 0.08"}]}
